Results reported in publication PMC4335544 (Critical Care, 2015).

Legend:
[1] = Spontaneous drug degradation in control polypropylene tubes (whole blood); type: in vitro ADME; conditions: human whole blood, polypropylene tubes under agitation at 25°C, up to 48 hours; HPLC-UV or immuno-enzymatic method
[2] = cited from earlier work
Source text: Vancomycin, which is the drug of choice for treating beta-lactam resistant Gram-positive bacteria, is frequently prescribed to ECMO patients.

[3] = 37°C, 4.5 L/minute
Protocol: Whole ECMO circuits (Maquet®, Orleans, France) comprising a Quadrox® membrane oxygenator, a centrifugal pump, a heat exchanger and PVC tubing were used for ex vivo tests. All components of the circuit were treated with heparin (Bioline coating®, Maquet). Drug-free human whole blood (800 mL) was used to prime the circuit. In order to replicate the in vivo operating conditions, the temperature of the circulating blood was set at 37°C and circuit flow rate at 4.5 L/minute.
During ex vivo ECMO runs, serial post-membrane blood samples were obtained at 30 minutes, 1 hour, 2 hours, 3 hours, 4 hours, 5 hours, 24 hours and 48 hours after drug introduction into the circuit. Until analysis, samples were kept at 4°C and plasma separated and frozen at −20°C. To determine spontaneous drug degradation, blood containing identical concentrations of the drugs studied was kept in polypropylene tubes under agitation at 25°C for the same time before measurements.
Propofol and midazolam concentrations were measured using high performance liquid chromatography with an ultra-violet detector (Waters, Milford, MA, USA).
Changes of mean drug concentrations over time were compared between control and experimental conditions by modeling using a linear mixed effect model. […] Model choice was guided by the lowest Akaike criteria value. The mixed effect model was then fitted with R software version 3.0.2 and the ‘nlme’ library [10].

[4] = octanol/water; ref 13-16 (Drug Bank); cited from earlier work
[5] = Experimental: To further explore the role of temperature, oxygen exposure and PVC surfaces on propofol loss in the ECMO circuit, the following experiments were conducted. A polypropylene tube containing human whole blood was spiked with the propofol stock solution to obtain a concentration of […]. The effect of the temperature, oxygen exposure and contact with PVC surfaces were assessed by incubating the tube at 37°C, applying oxygen (1 L/minute) for 10 seconds to the preparation and by distributing the preparation into 5-cm PVC tubes, respectively. Polypropylene tubes containing blood and propofol at the same concentration were stored at room temperature and were used as controls. Propofol concentrations were measured at 0 minutes, 5 minutes, 10 minutes, 15 minutes, 20 minutes, 25 minutes, 30 minutes and 45 minutes from each preparation. These experiments were conducted in triplicate.

Row | Compound | concentration over time in control polypropylene tubes [1] | decrease in concentration, used circuit ([2]; circuit which had been running for five days, ref 3 (Dagan et al.)) | decrease in concentration, new circuit ([2]; drug introduced in a new circuit, ref 3 (Dagan et al.)) | levels in ECMO circuit, result in words ([2]; ex vivo models, 24 hours, ref 20 (Mehta et al.), ref 19 (Shekar et al.)) | decrease in concentration, neonatal and pediatric circuits ([2]; neonatal and pediatric circuits, ref 6 (Wildschut et al.)) | concentration in ECMO circuit, result in words ([3]; during the 48 hours of the protocol, human whole blood, immuno-enzymatic method, n = 3 circuits) | Partition coefficient (log P) [4] | loss of propofol on contact with PVC tubing ([5]; after 45 minutes, human whole blood distributed into 5-cm PVC tubes, propofol 2 μg/L as printed, mean of n = 3) | loss of propofol on oxygen exposure ([5]; after 45 minutes, human whole blood in polypropylene tube, oxygen 1 L/minute for 10 seconds, propofol 2 μg/L as printed, mean of n = 3) | effect of heating to 37°C on propofol concentration ([5]; polypropylene tube with human whole blood at 37°C, up to 45 minutes, n = 3) | baseline concentration lost in ECMO circuit ([3]; 30 minutes after introduction, Maquet circuit, Quadrox oxygenator, PVC tubing, heparin coating, 800 mL human whole blood, propofol 2 μg/mL, HPLC-UV, mean of n = 3 circuits) | initial concentration remaining in ECMO circuit ([3]; after 5 hours, human whole blood, HPLC-UV, mean of n = 3 circuits) | fraction remaining in ECMO circuit ([3]; beyond 24 hours, human whole blood, HPLC-UV, n = 3 circuits) | baseline concentration detected in ECMO circuit ([3]; at 30 minutes, human whole blood, HPLC-UV, mean of n = 3 circuits) | baseline concentration remaining in ECMO circuit ([3]; at 24 hours, human whole blood, midazolam HPLC-UV, cyclosporine immuno-enzymatic method, mean of n = 3 circuits)
1 | Vancomycin | remained stable | 11% | 36% | remained unchanged | up to 46% | remained stable | – | – | – | – | – | – | – | – | –
2 | CC(C)c1cccc(C(C)C)c1O [Propofol] | remained stable | – | – | – | – | – | 4.0 | 85% | 70% | no effect | 70% | 11% | negligible | – | –
3 | Cc1ncc2n1-c1ccc(Cl)cc1C(c1ccccc1F)=NC2 [Midazolam] | remained stable | – | – | – | – | – | 3.9 | – | – | – | – | – | – | 54% | 11%
